Assay results reported in the NIST ThermoML archive (doi:10.1016/j.jct.2016.06.004).
± gives the expanded uncertainty stated by the source.

Key:
[1] = xn = mol fraction of the nth substance listed; settings: Ring tensiometer
[2] = Ring tensiometer

CC(C)O [propan-2-ol] + C[S+](C)[O-]
[1], x1 = 1
Settings | surface tension liquid-gas [mN/m]
298.15 K | 21.15 ± 0.43
308.15 K | 20.29 ± 0.42
318.15 K | 19.53 ± 0.4
328.15 K | 18.51 ± 0.39

C[S+](C)[O-] [dimethyl sulfoxide]
[2]
Settings | surface tension liquid-gas [mN/m]
298.15 K | 42.43 ± 0.74
308.15 K | 41.3 ± 0.73
318.15 K | 40.17 ± 0.71
328.15 K | 39.08 ± 0.69

CO [methanol]
[2]
Settings | surface tension liquid-gas [mN/m]
298.15 K | 22.24 ± 0.44
308.15 K | 21.41 ± 0.42
318.15 K | 20.53 ± 0.41
328.15 K | 19.54 ± 0.4

CO [methanol] + C[S+](C)[O-]
[1], x1 = 1
Settings | surface tension liquid-gas [mN/m]
298.15 K | 22.24 ± 0.44
308.15 K | 21.41 ± 0.42
318.15 K | 20.53 ± 0.41
328.15 K | 19.54 ± 0.4

C[S+](C)[O-] [dimethyl sulfoxide] + CC(C)O
surface tension liquid-gas [mN/m], [1]
Settings | 298.15 K | 308.15 K | 318.15 K | 328.15 K
x2 = 0 | 42.43 ± 0.74 | 41.3 ± 0.73 | 40.17 ± 0.71 | 39.08 ± 0.69
x2 = 0.044 | 39.17 ± 0.71 | 38.58 ± 0.7 | 37.9 ± 0.69 | 36.91 ± 0.67
x2 = 0.085 | 36.42 ± 0.66 | 35.88 ± 0.65 | 34.99 ± 0.64 | 34.12 ± 0.63
x2 = 0.157 | 33.83 ± 0.62 | 32.83 ± 0.6 | 32.05 ± 0.59 | 31.15 ± 0.58
x2 = 0.245 | 30.89 ± 0.57 | 30.21 ± 0.56 | 29.55 ± 0.55 | 28.39 ± 0.54
x2 = 0.338 | 28.56 ± 0.54 | 27.7 ± 0.53 | 27.02 ± 0.52 | 26 ± 0.5
x2 = 0.441 | 26.67 ± 0.51 | 25.88 ± 0.5 | 25.19 ± 0.49 | 24.1 ± 0.47
x2 = 0.537 | 25.15 ± 0.49 | 24.46 ± 0.48 | 23.87 ± 0.47 | 22.79 ± 0.45
x2 = 0.619 | 24.19 ± 0.47 | 23.39 ± 0.46 | 22.81 ± 0.45 | 21.74 ± 0.44
x2 = 0.676 | 23.19 ± 0.46 | 22.84 ± 0.45 | 22.06 ± 0.44 | 21.08 ± 0.43
x2 = 0.719 | 23.03 ± 0.46 | 22.48 ± 0.45 | 21.67 ± 0.43 | 20.72 ± 0.42
x2 = 0.751 | 22.84 ± 0.45 | 22.21 ± 0.44 | 21.43 ± 0.43 | 20.45 ± 0.42
x2 = 0.86 | 22 ± 0.44 | 21.21 ± 0.43 | 20.51 ± 0.42 | 19.59 ± 0.4

C[S+](C)[O-] [dimethyl sulfoxide] + CCO
surface tension liquid-gas [mN/m], [1]
Settings | 298.15 K | 308.15 K | 318.15 K | 328.15 K
x2 = 0 | 42.43 ± 0.74 | 41.3 ± 0.73 | 40.17 ± 0.71 | 39.08 ± 0.69
x2 = 0.087 | 39.25 ± 0.7 | 38.32 ± 0.68 | 37.35 ± 0.67 | 36.37 ± 0.65
x2 = 0.174 | 36.69 ± 0.66 | 35.75 ± 0.64 | 34.88 ± 0.63 | 33.99 ± 0.62
x2 = 0.261 | 34.4 ± 0.62 | 33.6 ± 0.61 | 32.69 ± 0.6 | 31.87 ± 0.58
x2 = 0.348 | 32.29 ± 0.59 | 31.5 ± 0.58 | 30.73 ± 0.57 | 29.99 ± 0.56
x2 = 0.435 | 30.48 ± 0.56 | 29.71 ± 0.55 | 28.95 ± 0.54 | 28.22 ± 0.53
x2 = 0.522 | 28.84 ± 0.54 | 28.08 ± 0.53 | 27.33 ± 0.51 | 26.61 ± 0.5
x2 = 0.609 | 27.34 ± 0.51 | 26.58 ± 0.5 | 25.83 ± 0.49 | 25.21 ± 0.48
x2 = 0.696 | 26.04 ± 0.49 | 25.22 ± 0.48 | 24.44 ± 0.47 | 23.64 ± 0.46
x2 = 0.783 | 24.63 ± 0.47 | 23.91 ± 0.46 | 23.14 ± 0.45 | 22.36 ± 0.44
x2 = 0.87 | 23.4 ± 0.45 | 22.7 ± 0.44 | 21.91 ± 0.43 | 21.07 ± 0.42

CCO [ethanol] + C[S+](C)[O-]
[1], x1 = 1
Settings | surface tension liquid-gas [mN/m]
298.15 K | 21.66 ± 0.43
308.15 K | 21.01 ± 0.42
318.15 K | 20.19 ± 0.4
328.15 K | 19.23 ± 0.39

CCO [ethanol]
[2]
Settings | surface tension liquid-gas [mN/m]
298.15 K | 21.66 ± 0.43
308.15 K | 21.01 ± 0.42
318.15 K | 20.19 ± 0.4
328.15 K | 19.23 ± 0.39

O [water]
Settings | surface tension liquid-gas [mN/m]
[2], 298.15 K | 72.05 ± 1.2

C[S+](C)[O-] [dimethyl sulfoxide] + CO
surface tension liquid-gas [mN/m], [1]
Settings | 298.15 K | 308.15 K | 318.15 K | 328.15 K
x2 = 0 | 42.43 ± 0.74 | 41.3 ± 0.73 | 40.17 ± 0.71 | 39.08 ± 0.69
x2 = 0.077 | 41.31 ± 0.73 | 40.2 ± 0.71 | 39.15 ± 0.69 | 38.06 ± 0.68
x2 = 0.154 | 40.03 ± 0.71 | 38.95 ± 0.69 | 37.91 ± 0.68 | 36.84 ± 0.66
x2 = 0.231 | 38.59 ± 0.69 | 37.54 ± 0.67 | 36.58 ± 0.66 | 35.55 ± 0.64
x2 = 0.308 | 37.1 ± 0.66 | 36.16 ± 0.65 | 35.2 ± 0.64 | 34.25 ± 0.62
x2 = 0.384 | 35.6 ± 0.64 | 34.69 ± 0.63 | 33.78 ± 0.61 | 32.84 ± 0.6
x2 = 0.462 | 34.07 ± 0.62 | 33.18 ± 0.6 | 32.31 ± 0.59 | 31.45 ± 0.58
x2 = 0.538 | 32.46 ± 0.59 | 31.62 ± 0.58 | 30.79 ± 0.57 | 29.96 ± 0.56
x2 = 0.615 | 30.84 ± 0.57 | 30.03 ± 0.56 | 29.22 ± 0.54 | 28.41 ± 0.53
x2 = 0.693 | 29.2 ± 0.54 | 28.38 ± 0.53 | 27.56 ± 0.52 | 26.79 ± 0.51
x2 = 0.769 | 27.5 ± 0.52 | 26.69 ± 0.51 | 25.84 ± 0.49 | 24.96 ± 0.48
x2 = 0.846 | 25.77 ± 0.49 | 24.89 ± 0.48 | 24.2 ± 0.47 | 23.31 ± 0.46
x2 = 0.9 | 24.56 ± 0.47 | 23.67 ± 0.46 | 22.88 ± 0.45 | 21.94 ± 0.43

CC(C)O [propan-2-ol]
[2]
Settings | surface tension liquid-gas [mN/m]
298.15 K | 21.15 ± 0.43
308.15 K | 20.29 ± 0.42
318.15 K | 19.53 ± 0.4
328.15 K | 18.51 ± 0.39
